From US20230278972A1, “SUBSTITUTED HALOALKYL SULFONANILIDE HERBICIDES” (FMC Corporation, priority 2020, published 2023)

Columns and labels:
Type in all cases: in vivo
soybean (Glycine max) = assay: Test A1 postemergence, soybean; conditions: for Plant response rating, Soybean: Postemergence
Outline: (§1)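 Plants grown in pots of loam/sand mix; preemergence = soil-directed spray on seeded pots, postemergence = spray at 1–2 leaves, height 2–10 cm; test chemicals formulated in non-phytotoxic solvent with surfactant.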

kochia (Bassia scoparia) [1] = assay: Test A1 postemergence, kochia; conditions: for Plant response rating, Kochia: Postemergence
Outline: as §1

[2] = system: goosegrass (Eleusine indica); assay: Test A1 preemergence, goosegrass
Outline: (§2)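 Seeds were first planted into a blend of loam soil and sand and given a preemergence directed soil spray. In parallel, pots of the same soil were sown for postemergence application once plants reached 2 to 10 cm and the one- to two-leaf stage. Both used surfactant-containing non-phytotoxic solvent formulations.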

[3] = system: Pigweed, Palmer (palmer amaranth, palmer pigweed, Amaranthus palmeri); assay: Test A1 preemergence, Pigweed, Palmer
Outline: as §2

[4] = system: Ryegrass, Italian (Italian ryegrass, Lolium multiflorum); assay: Test A1 postemergence, Ryegrass, Italian; conditions: for Plant response rating, Ryegrass, Italian: Postemergence
Outline: as §1

[5] = system: Oat, Wild (wild oat, Avena fatua); assay: Test A1 preemergence, Oat, Wild
Outline: as §2

kochia (Bassia scoparia) [6] = assay: Test A1 preemergence, kochia
Outline: as §2

[7] = system: blackgrass (Alopecurus myosuroides); assay: Test A1 preemergence, blackgrass
Outline: as §2

[8] = 31 g ai/ha, postemergence, 0 to 100 scale (0 no effect, 100 complete control)
[9] = 31 g ai/ha, 0 to 100 scale (0 no effect, 100 complete control)
[10] = 125 g ai/ha, 0 to 100 scale, 0 no effect, 100 complete control
[11] = 31 g ai/ha, 0 to 100 scale (0 no effect, 100 complete control), 10 days

Row | SMILES | Soybean plant response rating (soybean (Glycine max); [8]) | Plant response rating, Soybean (soybean (Glycine max); 125 g ai/ha, 0 to 100 scale) | Kochia plant response rating (kochia (Bassia scoparia) [1]; [8]) | Plant response rating, Kochia (kochia (Bassia scoparia) [1]; 125 g ai/ha, 0 to 100 scale) | Plant response rating, Goosegrass [2, 9] | Plant response rating, Goosegrass [2, 10] | Plant response rating, Pigweed, Palmer [3, 9] | Plant response rating, Pigweed, Palmer [3, 10] | Ryegrass, Italian plant response rating [4, 8] | Plant response rating, Ryegrass, Italian ([4]; 125 g ai/ha, 0 to 100 scale) | Plant response rating, Oat, Wild [5, 9] | Plant response rating, Oat, Wild [5, 10] | Plant response rating, Kochia (kochia (Bassia scoparia) [6]; [9]) | Plant response rating, Kochia (kochia (Bassia scoparia) [6]; [10]) | Plant response rating, Blackgrass [7, 9] | Plant response rating, Blackgrass [7, 10] | Plant response rating, Soybean (soybean (Glycine max); [11]) | Plant response rating, Kochia (kochia (Bassia scoparia) [1]; [11]) | Plant response rating, Ryegrass, Italian [4, 11]
1 | Cc1c(C(=O)N2C[C@@H](C)O[C@H](C)C2)cc(N(COC(=O)C(C)(C)C)S(=O)(=O)C(F)(F)F)c(C)c1C (relative stereo) [Compound 373] | 50 | 70 | 0 | 10 | 30 | 100 | 20 | 40 | 0 | 30 | 0 | 0 | 0 | 0 | 30 | 30 |  |  | 
2 | Cc1cc(C)c(N(COC(=O)C(C)(C)C)S(=O)(=O)C(F)(F)F)cc1C1=NOC2CCCCCC12 (single isomer, unassigned) [Compound 294] |  | 50 |  | 20 | 0 | 90 | 10 | 30 |  | 40 | 0 | 20 | 0 | 60 | 10 | 0 | 0 | 0 | 0
3 | Cc1cc(C)c(-n2nccc(C)c2=O)cc1NS(=O)(=O)C(F)(F)F [Compound 281] |  | 60 |  | 10 | 10 | 90 | 0 | 40 |  | 0 | 50 | 0 | 0 | 20 | 0 | 0 | 50 | 0 | 0
4 | Cc1c(NS(=O)(=O)C(F)(F)F)cc(C(=O)N(C)C)c(C)c1Cl [Compound 287] |  | 50 |  | 10 | 70 | 90 | 0 | 90 |  | 60 | 0 | 10 | 20 | 60 | 0 | 30 | 30 | 0 | 0
5 | Cc1c(NS(=O)(=O)C(F)(F)F)cc(C(=O)N(C)C)c(C)c1C [Compound 288] |  | 40 |  | 10 | 30 | 90 | 50 | 70 |  | 0 | 0 | 0 | 0 | 40 | 0 | 0 | 30 | 0 | 0
6 | Cc1c(NS(=O)(=O)C(F)(F)F)cc(C(=O)N2CCOCC2)c(C)c1Cl [Compound 290] |  | 20 |  | 20 | 70 | 90 | 0 | 50 |  | 50 | 0 | 20 | 20 | 30 | 20 | 70 | 0 | 20 | 0
7 | Cc1cc(C)c(N(C(=O)OC(C)C)S(=O)(=O)C(F)(F)F)cc1C1=NOC2CCCC12 (stereo not drawn) [Compound 295] |  | 50 |  | 30 | 80 | 90 | 0 | 80 |  | 30 | 0 | 0 | 0 | 30 | 0 | 0 | 20 | 0 | 0
8 | Cc1cc(C)c(N(C(=O)OCC(C)C)S(=O)(=O)C(F)(F)F)cc1C1=NOC2CCCC12 (stereo not drawn) [Compound 299] |  | 50 |  | 20 | 60 | 90 | 0 | 70 |  | 50 | 0 | 20 | 0 | 50 | 0 | 30 | 40 | 0 | 30
9 | Cc1cc(C)c(N(COC(=O)C(C)(C)C)S(=O)(=O)C(F)(F)F)cc1C1=NOC2COCC12 (stereo not drawn) [Compound 301] |  | 40 |  | 30 | 80 | 100 | 10 | 40 |  | 60 | 0 | 0 | 30 | 80 | 30 | 40 | 10 | 0 | 0
10 | Cc1cc(F)c(NS(=O)(=O)C(F)(F)F)cc1C1=NOC2(CCCC2)C1 [Compound 303] |  | 50 |  | 60 | 50 | 100 | 20 | 20 |  | 60 | 20 | 60 | 20 | 20 | 0 | 40 | 30 | 0 | 0
11 | CCc1cc(C)c(NS(=O)(=O)C(F)(F)F)cc1C1=NOC2CCCC12 (stereo not drawn) [Compound 305] |  | 50 |  | 10 | 90 | 90 | 40 | 60 |  | 40 | 20 | 60 | 0 | 40 | 10 | 40 | 10 | 0 | 0
12 | Cc1cc(C(F)(F)F)c(C2=NOC3CCCC23)cc1NS(=O)(=O)C(F)(F)F (stereo not drawn) [Compound 306] |  | 40 |  | 20 | 50 | 100 | 50 | 100 |  | 10 | 0 | 10 | 0 | 30 | 0 | 0 | 20 | 0 | 0
13 | Cc1cc(C)c(N(COC(=O)C(C)C)S(=O)(=O)C(F)(F)F)cc1C1=NOC2CCCC12 (stereo not drawn) [Compound 308] |  | 60 |  | 70 | 80 | 90 | 40 | 70 |  | 30 | 0 | 50 | 20 | 70 | 0 | 50 | 40 | 20 | 0
14 | Cc1cc(Br)c(NS(=O)(=O)C(F)(F)F)cc1C1=NOC2(CCCC2)C1 [Compound 309] |  | 30 |  | 60 | 50 | 100 | 40 | 40 |  | 30 | 20 | 60 | 0 | 50 | 30 | 60 | 10 | 0 | 0
15 | Cc1cc(F)c(C2=NOC3CCCC23)cc1NS(=O)(=O)C(F)(F)F (stereo not drawn) [Compound 310] |  | 30 |  | 20 | 0 | 0 | 0 | 70 |  | 30 | 0 | 0 | 0 | 40 | 0 | 0 | 20 | 0 | 20
